Data on seven molecules can be found in patent publication US6211227A, “Tricyclic compounds” (Kyowa Hakko Kogyo Co., Ltd., priority 1997, dated 2001).

In experiment [1] the test system is detrusor muscle (isolated urinary bladder strips). The experiment can be described thus: Relaxation of rhythmic contraction induced by 15 mmol/l KCl in isolated urinary bladder strips (Test Example 2). Also noted: species or system guinea pig (male albino Hartley). Particulars: Cavia porcellus; KCl 15 mmol/l; cumulative, contact time 15-30 minutes; 50% relaxant of maximum response. The text has this:
(§1) The activity of Compounds (I) as therapeutic agents for pollakiuria and urinary incontinence is described below. In the following Test Examples 1 and 2, IC50 value was defined as the concentration at which a test compound produces 50% relaxant of maximum response of detrusor muscle.
(§2) Male albino Hartley guinea pigs (350-550 g) were used as test animals. Each animal was exsanguinated to death under sodium pentobarbital anesthesia. The lower abdominal cavity was opened and its bladder was positioned. The connective tissue and the fat tissue around the bladder were removed, and the bladder was washed. After bilateral pelvic nerves on the surface of the abdominal side of the bladder were dissected, the bladder was taken out on the entrance of ureter. The bladder was washed with a Krebs-Henseleit buffer [composition (mM): NaCl 118, KCl 4.7, MgSO4 1.2, KH2 PO4 1.2, CaCl2 2.5, NaHCO3 25, and D-glucose 11.1], and then put on a gauze patch soaked in the buffer in a Petri dish. The dome and the trigone of the bladder were cut away. The back of the bladder was cut vertically in the middle with scissors, and the bladder was put flat on the gauze patch. The mucosa of the bladder was removed. The back of the bladder was cut vertically to get 6 strips which are ca. 2.0 mm wide and ca. 10 mm long.
(§3) Each strip was tied at one end to plastic rod and placed in a 20 ml organ bath containing a Krebs-Henseleit solution which was maintained at 37° C. and bubbled vigorously with a gas mixture of 5% CO2 and 95% O2. The pH of the solution was adjusted to about 7.4. The other end of the strip was tied via silk thread to a force displacement transducer (NIHON KODEN TB-611T). The transducer was connected to a polygraph (NIHON KODEN AP-621G), and the changes in tension were recorded on a recorder (YOKOGAWA type 3066). The polygraph was graduated by 0.5 g/cm.
Isolated urinary bladder strips were prepared in the same manner as in Test Example 1, and the tension of the preparation was measured. After the tension of the tissue was adjusted to be a steady state at 1 g, 15 mmol/l KCl was applied. After the rhythmic contraction was confirmed to appear by KCl, the tissue was washed. Then, 15 mmol/l KCl was applied again. After the rhythmic contraction induced by KCl became constant, a test compound was applied by the cumulative method (half-logarithmic increment). The contact time at each concentration was 15-30 minutes. The activity of the compound was expressed as the maximum relaxation rate (%) against the tension induced by the agonist.

Experiment [2] has the same test system. The experiment can be described thus: Relaxation of contraction induced by 50 mmol/l KCl in isolated urinary bladder strips (Test Example 1). Also noted: species or system guinea pig (male albino Hartley). Particulars: Cavia porcellus, 0.5 h; KCl 50 mmol/l; cumulative, contact time 30 minutes; 50% relaxant of maximum response.
Description: as §1, §2, §3
After the tissue was incubated in the buffer for 15 minutes without preloading, tension was added thereto for about one hour. The preloading tension added was 1.5 g and it was relaxed to about 1 g. The strips were allowed to equilibrate until their contractions became constant and tension was adjusted to 1 g. After this equilibrium period, 50 mmol/l KCl (the whole content in the bath) was added, and the tissue was washed 10 minutes later. KCl was added to the tissue at intervals of 30 minutes, followed by washing 10 minutes later, and KCl was applied repeatedly until the developed tension induced by KCl becomes constant. When the tissue was confirmed to contract constantly by the application of KCl and relax to the steady state after washing, 50 mmol/l KCl was applied again. After the tissue reached the steady state and the base line was obtained, a test compound was applied by the cumulative method (half-logarithmic increment). The contact time at each concentration was 30 minutes. The activity of the compound was expressed as the maximum relaxation rate (%) against the tension induced by the agonist.

The subject of another experiment is bladder. The experiment can be described thus: animal or person. To be noted: Rattus norvegicus, po, read-out: Contraction interval.

Like-named read-outs stand apart in the source and are kept apart here. Bounds are passed on as bounds.

As to `CC(O)(C(=O)Nc1cccc2c1C(=O)c1sccc1CS2(=O)=O)C(F)(F)F` (centres unmarked) [Compound 1-1, 5,5-Dioxo-9-(3,3,3-trifluoro-2-hydroxy-2-methylpropanoylamino)-4,10-dihydrothieno[3,2-c][1]benzothiepin-10-one], the values for the concentration for half-maximal inhibition (IC50) in experiment [1] and in experiment [2] were 2.6 µM and greater than 10 µM, respectively. The response vs control in vivo at 1 mg/kg with bladder (1 h) came to 138 ± 15%; in the experiment with bladder (2 h), 166 ± 16%; in the experiment on bladder (3 h) it was 170 ± 6%; in the experiment on bladder (4 h), 181 ± 16%; with bladder (5 h), 203 ± 21%. The response vs control in vivo at 10 mg/kg in the experiment on bladder (1 h) came out at 124 ± 4%; with bladder (2 h), 139 ± 9%; in the experiment with bladder (3 h) it was 154 ± 14%; in the experiment on bladder (4 h), 176 ± 13%; with bladder (5 h) it was 190 ± 15%.

`CC(O)(C(=O)Nc1ccc2c(c1)S(=O)(=O)Cc1ccsc1C2=O)C(F)(F)F` (centres unmarked) [Compound 1-2, 5,5-Dioxo-7-(3,3,3-trifluoro-2-hydroxy-2-methylpropanoylamino)-4,10-dihydrothieno[3,2-c][1]benzothiepin-10-one]: the IC50 (in general, the midpoint of a concentration-inhibition curve) was 5.1 µM in experiment [1] and greater than 10 µM in experiment [2]. Also, the response vs control in vivo at 1 mg/kg with bladder (1 h) amounted to 116 ± 8%; in the experiment on bladder (2 h), 136 ± 5%; in the experiment with bladder (3 h), 149 ± 9%; in the experiment with bladder (4 h), 143 ± 5%; in the experiment with bladder (5 h), 139 ± 6%.

On to `CC(O)(C(=O)Nc1cccc2c1C(=O)c1ccccc1CS2(=O)=O)C(F)(F)F` (centres unmarked) [Compound 1-3, 5,5-Dioxo-1-(3,3,3-trifluoro-2-hydroxy-2-methylpropanoylamino)-6,11-dihydrodibenzo[b,e]thiepin-11-one], for which the IC50 is 6.3 µM in experiment [1] and greater than 10 µM in experiment [2]. The response vs control in vivo at 1 mg/kg in the experiment on bladder (1 h) is 123 ± 15%; with bladder (2 h), 135 ± 11%; with bladder (3 h), 144 ± 10%; in the experiment with bladder (4 h) it was 160 ± 19%; in the experiment with bladder (5 h) it was 160 ± 16%.

With `CC(O)(C(=O)Nc1cccc2c1C(=O)c1ccsc1CS2(=O)=O)C(F)(F)F` (centres unmarked) [Compound 1-5, 9,9-Dioxo-5-(3,3,3-trifluoro-2-hydroxy-2-methylpropanoylamino)-4,10-dihydrothieno[2,3-c][1]benzothiepin-4-one], the IC50 in experiment [1] was found to be 4 µM; in experiment [2], 8.7 µM.

`C[C@](O)(C(=O)Nc1cccc2c1C(=O)c1sccc1CS2(=O)=O)C(F)(F)F` [Compound 1-25, (S)-(+)-5,5-Dioxo-9-(3,3,3-trifluoro-2-hydroxy-2-methylpropanoylamino)-4,10-dihydrothieno[3,2-c][1]benzothiepin-10-one]: the half-inhibitory concentration (IC50) in experiment [1] turned out to be 2.6 µM; in experiment [2], 10.5 µM. The response vs control in vivo at 0.1 mg/kg stood at 108 ± 9% with bladder (1 h); 140 ± 9% in the experiment with bladder (2 h); 140 ± 12% in the experiment on bladder (3 h); 148 ± 13% in the experiment with bladder (4 h); 163 ± 17% in the experiment with bladder (5 h). Besides, the response vs control in vivo at 3 mg/kg in the experiment with bladder (1 h) is 129 ± 8%; in the experiment with bladder (2 h), 125 ± 14%; in the experiment on bladder (3 h) it was 143 ± 22%; with bladder (4 h) it was 165 ± 22%; with bladder (5 h), 161 ± 13%. The response vs control in vivo at 10 mg/kg was 133 ± 15% in the experiment with bladder (1 h); 128 ± 10% in the experiment on bladder (2 h); 149 ± 19% in the experiment on bladder (3 h); 180 ± 22% in the experiment with bladder (4 h); 183 ± 14% in the experiment on bladder (5 h).

For `C[C@@](O)(C(=O)Nc1cccc2c1C(=O)c1sccc1CS2(=O)=O)C(F)(F)F` [Compound 1-26, (R)-(-)-5,5-Dioxo-9-(3,3,3-trifluoro-2-hydroxy-2-methylpropanoylamino)-4,10-dihydrothieno [3,2-c][1]benzothipin-10-one], the IC50 in experiment [1] stood at 6.6 µM; in experiment [2], 6.3 µM. In addition, the response vs control in vivo at 0.1 mg/kg in the experiment with bladder (1 h) is 118 ± 8%; with bladder (2 h), 137 ± 7%; in the experiment with bladder (3 h) it was 145 ± 7%; in the experiment with bladder (4 h) it was 152 ± 8%; with bladder (5 h), 168 ± 7%.

As for `O=C1c2ccc(NC(=O)C(F)(F)F)cc2S(=O)(=O)Cc2ccsc21` [Compound 3-5, 5,5-Dioxo-7-trifluoroacetylamino-4,10-dihydrothieno[3,2-c][1]benzothiepin-10-one], the figures for the IC50 in experiment [1] and in experiment [2] were 8.3 µM and 8.7 µM, respectively. The response vs control in vivo at 1 mg/kg in the experiment with bladder (1 h) was found to be 131 ± 12%; in the experiment with bladder (2 h), 152 ± 4%; in the experiment with bladder (3 h), 145 ± 18%; in the experiment with bladder (4 h), 157 ± 13%; in the experiment on bladder (5 h) it was 158 ± 4%.
